Molecules are shown by their SMILES.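 In this assay, cells in 96-well plates receive the compound at five concentrations for 48 hours. Endpoints are linearly interpolated between the surrounding concentrations. At the GI50, growth is halved.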 Active and inactive are the calls of the source. Cut-off read from the data, not from the text of the source: active = GI50 up to about 1.1 µM and inactive = higher.

What all share (assay): inhibition of tumour cell growth, NCI panel, 48 h
The subject of test [1] is UACC-62.
In test [2] the test system is EKVX.
Test [3] has as its system OVCAR-5.
For test [4], the system named is M14.
The test system of test [5] is NCI-H460.
Test [6] has as its system UO-31.
Test [7] deals with KM12.
Test [8] relates to HCC 2998.
Test [9] has as its system SF-268.
The test system of test [10] is UACC-257.
Test [11] concerns HOP-92.
Test [12] deals with U-251.
Test [13] has as its system OVCAR-3.
Test [14] deals with MOLT-4.
In test [15] the test system is CCRF-CEM.
Test [16] concerns HCT-116.
In test [17] the test system is SF-295.
Test [18] relates to NCI/ADR-RES.
Test [19] has as its system MCF7.
Test [20] concerns SK-OV-3.

As to `Cc1cc(O)nc(NN2C(Cl)C(=O)C2c2cccc(Cl)c2)n1` (stereo not given), the GI50 in test [1] is 23.1 µM (inactive); in [2] it was 36.6 µM (inactive); in test [3], 58.2 µM (inactive); in [4] it was 17.4 µM (inactive); in test [5] it was 18.4 µM (inactive); in [6] it was 24.2 µM (inactive). Further, the GI50 in test [7] is 21.7 µM (inactive); in [8], 31.2 µM (inactive); in test [9], 18.5 µM (inactive); in test [10], 32.8 µM (inactive); in [11], 20.6 µM (inactive); in test [12], 30.5 µM (inactive). Besides, the GI50 in [13] was 12.5 µM (inactive); in test [14] it was 13.8 µM (inactive); in test [15] it was 6.49 µM (inactive); in [16], > 10 µM (inactive).
Take `O=c1ccc2ccc(CBr)cc2o1`: the GI50 is 10.8 µM (inactive) in test [1]; 2.49 µM (inactive) in test [2]; 1.73 µM (inactive) in [3]; 2.8 µM (inactive) in test [4]; 15.3 µM (inactive) in [17]; 10.8 µM (inactive) in test [5]. In addition, the GI50 in test [8] is 3.34 µM (inactive); in test [10], 11.7 µM (inactive); in [18] it was 1.69 µM (inactive); in test [11], 1.68 µM (inactive); in test [19], 1.9 µM (inactive); in test [12] it was 1.81 µM (inactive). The GI50 is 2.29 µM (inactive) in [14], 1.78 µM (inactive) in test [15] and 1.88 µM (inactive) in [16].
Turning to `COc1cc2c(cc1O)N=C[C@@H]1CC[C@@H](O)N1C2=O.COc1cc2c(cc1O)N=C[C@@H]1CC[C@H](O)N1C2=O`, the GI50 in test [1] is 0.627 µM (active); in [2], 1.87 µM (inactive); in [3], 2.99 µM (inactive); in test [17] it was 0.984 µM (active); in [5], 2.54 µM (inactive); in test [6], 0.579 µM (active). Also, the GI50 in test [7] is 1.38 µM (inactive); in [20] it was 4.41 µM (inactive); in test [8] it was 0.863 µM (active); in [9] it was 0.735 µM (active); in test [10] it was 1.6 µM (inactive); in test [18], 0.855 µM (active). Further, the GI50 in [11] is 0.752 µM (active); in test [19], 0.946 µM (active); in test [12], 0.635 µM (active); in test [13] it was 0.561 µM (active); in [14] it was 0.615 µM (active); in test [15] it was 0.369 µM (active). Moreover, in [16], the GI50 is 1.32 µM (inactive).
`COC(=O)Cc1c(/C=C/C(C)(C)n2cnc(CCN3C(=O)CCC3=O)c2)[nH]c2ccccc12`: the GI50 in test [1] was 14.2 µM (inactive); in [2] it was 13.7 µM (inactive); in test [3] it was > 100 µM (inactive); in test [4], > 100 µM (inactive); in test [17] it was 81.1 µM (inactive); in test [5], > 100 µM (inactive). Besides, the GI50 is 74.8 µM (inactive) in [6]; > 100 µM (inactive) in test [7]; > 100 µM (inactive) in [20]; 59.6 µM (inactive) in test [9]; > 100 µM (inactive) in test [10]; > 100 µM (inactive) in [18]. Further, the GI50 in test [11] is 53.6 µM (inactive); in [19], 47.2 µM (inactive); in test [12] it was > 100 µM (inactive); in [13] it was > 100 µM (inactive); in test [14] it was 57.3 µM (inactive); in test [15], 40.4 µM (inactive). For the same molecule, the GI50 in test [16] is > 100 µM (inactive).
Turning to `COc1cc(C2S/C(=C/c3ccccc3)C(=O)N2c2ccccc2Cl)cc(OC)c1OC` (stereo not given), the GI50 in test [1] was 20 µM (inactive); in test [2] it was 13.6 µM (inactive); in test [3], 42.5 µM (inactive); in [4], 20.2 µM (inactive); in test [17], 28.9 µM (inactive); in test [6], 28.5 µM (inactive). Further, the GI50 in test [7] was 22 µM (inactive); in test [20], 29.6 µM (inactive); in [8] it was 33 µM (inactive); in [9], 30.3 µM (inactive); in test [10], 45.5 µM (inactive); in [18], 25.6 µM (inactive). Also, the GI50 in test [11] is 14.3 µM (inactive); in [19], 18.6 µM (inactive); in test [12] it was 22.1 µM (inactive); in test [14], 41.8 µM (inactive); in test [16], 19 µM (inactive).
For `C[C@H](N[C@H]1CCC[C@]1(O)C#Cc1ccc2c(c1)OCO2)c1ccccc1`, the GI50 is > 25 µM (inactive) in test [1]; > 25 µM (inactive) in [2]; > 25 µM (inactive) in test [3]; 14.2 µM (inactive) in test [4]; > 25 µM (inactive) in test [17]; 21.4 µM (inactive) in [5]. Besides, the GI50 in test [6] was > 25 µM (inactive); in test [7] it was > 25 µM (inactive); in test [20] it was > 25 µM (inactive); in [8] it was 10.7 µM (inactive); in [9], > 25 µM (inactive); in test [10], > 25 µM (inactive). Also, the GI50 is > 25 µM (inactive) in test [18]; 11.9 µM (inactive) in [11]; > 25 µM (inactive) in test [19]; 19.7 µM (inactive) in [12]; 10.9 µM (inactive) in test [14]; > 25 µM (inactive) in [15].
Consider `C/C(CC(=O)Nc1ccccc1)=N\NC(N)=S`, for which the GI50 in test [1], in [2], in test [3], in test [4], in test [17] and in test [5] was > 100 µM (inactive) in each case. Also, the GI50 in test [6], in test [7], in [20], in test [8], in test [9] and in test [10] was > 100 µM (inactive) throughout. Besides, the GI50 in test [11], in test [12], in test [13], in test [14], in [15] and in [16] was > 100 µM (inactive) in each case.
As for `Cc1ccc(S(=O)(=O)NNC(=O)Nc2ccc(Cl)cc2)cc1`, the GI50 in test [1], in test [2], in test [3], in [4], in [17] and in test [5] was > 100 µM (inactive) throughout. Also, the GI50 in [6], in [7], in [20], in test [8], in [9] and in [10] was > 100 µM (inactive) throughout. The GI50 in [18], in [11], in test [19], in test [12], in test [14] and in test [15] was > 100 µM (inactive) each time. Besides, the GI50 in test [16] was > 100 µM (inactive).
With `O/N=C\c1cc(O)c(O)c(/C=N/O)c1`, the GI50 in test [1] was 38.5 µM (inactive); in [2], 34.8 µM (inactive); in test [3], 96.2 µM (inactive); in test [4], 27.5 µM (inactive); in [17] it was 55.1 µM (inactive); in test [5], 27.9 µM (inactive). The GI50 in test [6] is 16 µM (inactive); in test [7] it was 38.4 µM (inactive); in [20], 33.7 µM (inactive); in test [9] it was 15.2 µM (inactive); in [10] it was > 100 µM (inactive); in test [18] it was 32 µM (inactive). Moreover, the GI50 is 49.9 µM (inactive) in test [11]; 35.5 µM (inactive) in test [19]; 39 µM (inactive) in test [12]; 20.6 µM (inactive) in [13]; 21.4 µM (inactive) in test [14]; 7.66 µM (inactive) in test [15]. In addition, in test [16], the GI50 is 33.8 µM (inactive).
As to `O=Cc1ccccc1CCn1c(=O)c2cc3c(=O)n(CCc4ccccc4C=O)c(=O)c3cc2c1=O`, the GI50 in [1], in test [17], in [5], in [6], in test [7] and in [20] was > 100 µM (inactive) in each case. The GI50 in test [9], in [10], in test [12], in [13], in test [14] and in test [15] was > 100 µM (inactive) in each case. For the same molecule, the GI50 in test [16] was > 100 µM (inactive).
On to `COC(=O)C(Cc1ccc2c(c1)OCO2)(NC(=O)c1ccccc1)P(=O)(OC)OC` (stereo not given), for which the GI50 in test [1], in test [2], in test [3], in test [4], in test [17] and in [5] was > 100 µM (inactive) throughout. The GI50 in test [6], in [7], in test [20], in [8], in test [9] and in test [10] was > 100 µM (inactive) in each case. Also, the GI50 in test [11], in test [12], in [14], in test [15] and in test [16] was > 100 µM (inactive) throughout.

These data come from ChEMBL document CHEMBL1201862, “PubChem BioAssay data set” (2004).
